Assay type in all cases: biochemical
The target of assay [1] is T1, autophosphorylated FLT3 kinase domain (FLT3KD) (Homo sapiens, UniProt P36888).
T1 construct: purified and autophosphorylated FLT3 kinase domain (FLT3KD); 6xHis (C); made in house; host or cells: baculovirus, SF9 / SF21 insect cells
T1 sequence (P36888 610-943 limits assumed): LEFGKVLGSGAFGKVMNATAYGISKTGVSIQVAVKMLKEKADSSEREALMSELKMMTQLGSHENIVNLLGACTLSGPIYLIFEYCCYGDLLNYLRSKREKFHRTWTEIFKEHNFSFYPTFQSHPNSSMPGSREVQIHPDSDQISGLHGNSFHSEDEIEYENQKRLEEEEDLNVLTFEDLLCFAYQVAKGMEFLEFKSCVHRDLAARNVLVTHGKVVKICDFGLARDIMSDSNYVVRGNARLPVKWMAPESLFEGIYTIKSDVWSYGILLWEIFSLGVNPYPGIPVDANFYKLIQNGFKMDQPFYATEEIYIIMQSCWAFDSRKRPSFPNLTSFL
Kind of assay: FLT3 kinase assay (PK/LDH coupled, NADH loss at 340 nm). The conditions noted are these: 250 μM ATP. The text has this:
Although this example presents the use of the FLT3 kinase domain, the kinase assays may use various forms of FLT3, including, for example, the entire molecule, the kinase domain, or a portion thereof.
Materials : Substrate peptide=Poly (Glu, Tyr) 4:1=poly EY (Sigma P-0275); βNADH (Sigma CAT#N-8129, FW=709.4); 2M MgCl2; 1M HEPES buffer, pH 7.5; Phosphoenolpyruvate=PEP (Sigma CAT#P-7002, FW=234); Lactate dehydrogenase=LDH (Worthington Biochemical CAT#2756); Pyruvate Kinase=PK (Sigma CAT#P-9136); ATP (Sigma CAT#A-3377, FW=551); Greiner 384-well UV star plate; and purified and autophosphorylated FLT3 kinase domain (FLT3KD).
Stock Solutions: 10 mM NADH (7.09 mg/mL in miliQH2O) make fresh daily; 1 mg/mL Poly EY (in miliQH2O) store at −20° C.; 200mM HEPES buffer, pH 7.5 (10 ml 1M stock+40 ml miliQH2O) supplemented with 1 mM DTT; 100 mM MgCl2 (5 mL+95 ml dH2)); 100 mM PEP (23.4 mg/mL in dH2O) store at −20° C.; 10 mM ATP (5.51 mg/mL in dH2O) store at −20° C. (dilute 1 mL into total of 10 mL miliQH2O daily=1 mM ATP working stock); 1000 U/mL PK (U/mg varies with lot) flash-freeze under liquid N2 and store at −80° C.; 1000 U/mL LDH (U/mg varies with lot) flash-freeze under liquid N2 and store at −80° C.
Standard Assay Setup for 384-well format (50 μl reaction): 300 μM NADH; 10 mM MgCl2; 2 mM PEP; 45 U/mL PK; 60 U/mL LDH; 1 mg/mL Poly EY; 2.5 μL test compound (in DMSO); 10 μg/mL autophosphorylated FLT3 kinase domain; 250 μM ATP*; 100 mM HEPES buffer; QS with miliQ dH2O to 50 μL. Positive controls contained DMSO with no test compound. Negative controls contained 5 μl of 0.5M EDTA (50 mM in the assay). The kinase reaction was initiated at time t=0 by the addition of ATP.
The unphosphorylated FLT3KD that was produced required pre-incubation with MgATP to allow for autophosphorylation and full kinase activity. The autophosphorylation reaction was run in 100 mM HEPES buffer, 1 mM DTT, and 1 mg/mL FLT3KD by the addition of ATP and MgCl2 to a final concentration of 2 mM and 10 mM respectively. The reaction was allowed to proceed at room temperature for 90 minutes, and then was quenched by the addition of EDTA to 50 mM. The autophosphorylated protein was then aliquotted and flash frozen in liquid N2 for use.
The activity was measured by following the time-dependent loss of NADH by absorbance spectroscopy at 340 nm. The linear portion of the resulting progress curve was then be analyzed by linear regression to get the activity in absorbance units/time, reported as the slope of that best fit line (moles/unit time can be calculated from using molar extinction coeffecient for NADH at 340 nm, 6250M^−1cm^−1).
Data was analyzed using the equation: Z′=1−[3*(σ++σ−)/|μ+−μ−|], where μ denotes the mean and σ the standard deviation. The subscript designates positive or negative controls. The Z′ score for a robust screening assay should be ≧0.50. The typical threshold=μ+−3*σ+. Any value that falls below the threshold was designated a “hit.”
The dose response was measured using the equation: y=min+{(max−min)/1+10^[compound]-logIC50)}, where y is the observed initial slope, max is the slope in the absence of inhibitor, min is the slope at infinite inhibitor, and the IC50 is the [compound] that corresponds to ½ the total observed amplitude (Amplitude=max−min). The IC50 is related to the Ki by the following equation: IC50=Ki(1+[ATP]/Km).
To measure modulation, activation, or inhibition of FLT3KD, a test compound was added to the assay at a range of concentrations. Inhibitors may inhibit FLT3KD activity at an IC50 in the micromolar range, the nanomolar range, and, for example, in the subnanomolar range. […]

The target of assay [2] is T2, Abl T315I kinase domain, unphosphorylated (Mus musculus, UniProt P00520, T315I).
T2 construct: Purified and unphosphorylated T315I Abl kinase domain (clone 5582d42PPt6p6); made in house; host or cells: E. coli BL21(DE3) pSA0145, phosphatase co-expression plasmid
T2 sequence (P00520 242-493 T315I limits assumed): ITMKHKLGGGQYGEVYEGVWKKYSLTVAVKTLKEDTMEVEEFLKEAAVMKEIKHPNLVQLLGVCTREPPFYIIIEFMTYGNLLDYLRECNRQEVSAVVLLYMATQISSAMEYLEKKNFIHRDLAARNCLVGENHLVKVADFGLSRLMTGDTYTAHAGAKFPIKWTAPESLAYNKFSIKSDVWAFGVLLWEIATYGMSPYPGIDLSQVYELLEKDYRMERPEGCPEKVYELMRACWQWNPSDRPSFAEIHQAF
Kind of assay: Abl T315I kinase assay (PK/LDH coupled, NADH loss at 340 nm). The conditions noted are these: Table 8; 10 μM ATP; zero phosphorylation state. The text has this:
(§1) Although this example presents the use of the kinase domain of a mutant form of Abl T315I 0-P, the kinase assays may use various forms of mutant and wild type Abl, including, for example, the entire molecule, the kinase domain, or a portion thereof. The kinases used in the assays may also be of varying phophorylation states. In the present example, a mutant kinase at a zero phosphorylation state was used.
(§2) Materials: Abl substrate peptide=EAIYAAPFAKKK-OH (Biopeptide, SD CA); βNADH (Sigma CAT#N-8129, FW=709.4); 2M MgCl2; 1M HEPES buffer, pH 7.5; Phosphoenolpyruvate=PEP (Sigma CAT#P-7002, FW=234); Lactate dehydrogenase=LDH (Worthington Biochemical CAT#2756); Pyruvate Kinase=PK (Sigma CAT#P-9136); ATP (Sigma CAT#A-3377, FW=551); Greiner 384-well UV star plate; and Purified and unphosphorylated T315I Abl kinase domain (clone 5582d42PPt6p6).
(§3) Stock Solutions: 10 mM NADH (7.09 mg/mL in miliQH2O) make fresh daily; 10 mM Abl substrate peptide (13.4 mg/mL in miliQH2O) store at −20° C.; 100 mM HEPES buffer, pH 7.5 (5 mL 1M stock+45 mL miliQH2O); 100 mM MgCl2 (5 mL 2M MgCl2+95 ml dH2O); 100 mM PEP (23.4 mg/mL in dH2O) store at −20° C.; 10 mM ATP (5.51 mg/mL in dH2O) store at −20° C. (dilute 50 μL into total of 10 mL miliQH2O daily=50 μM ATP working stock); 1000 U/mL PK (U/mg varies with lot) flash-freeze under liquid N2 and store at −80° C.; and 1000 U/mL LDH (U/mg varies with lot) flash-freeze under liquid N2 and store at −80° C.
(§4) Standard Assay Setup for 384-well format (50 μl reaction): 300 μM NADH; 10 mM MgCl2; 2 mM PEP; 45 U/mL PK; 60 U/mL LDH; 200 μM Abl substrate peptide; 2.5 μL test compound (in DMSO); 2 μg/mL Abl kinase domain; 10 μM ATP; 100 mM HEPES buffer; QS with miliQ dH2O to 50 μL; Positive controls contained DMSO with no test compound. Negative controls contained 5 μl of 0.5M EDTA (50 mM in the assay). The dephosphorylated form of the c-Abl T315I mutant were used in the biochemical screening assays. The kinase reaction was initiated at time t=0 by the addition of ATP.
(§5) The activity was measured by following the time-dependent loss of NADH by absorbance spectroscopy at 340 nm. The linear portion of the resulting progress curve was then be analyzed by linear regression to get the activity in absorbance units/time, reported as the slope of that best fit line (moles/unit time can be calculated from using molar extinction coefficient for NADH at 340 nm, 6250M^−1cm^−1).
(§6) Data was analyzed using the equation: Z′=1-[3*(σ++σ−)/|μ+−μ−|], where μ denotes the mean and σ the standard deviation. The subscript designates positive or negative controls. The Z′ score for a robust screening assay should be ≧0.50. The typical threshold=μ+−3*σ+. Any value that falls below the threshold was designated a “hit”.
(§7) Dose response was analyzed using the equation: y=min+{(max−min)/(1+10^[compound]-logIC50)}, where y is the observed initial slope, max=the slope in the absence of inhibitor, min=the slope at infinite inhibitor, and the IC50 is the [compound] that corresponds to ½ the total observed amplitude (Amplitude=max−min).
(§8) To measure modulation, activation, or inhibition of AblKD, a test compound was added to the assay at a range of concentrations. Inhibitors may inhibit AblKD activity at an IC50 in the micromolar range, the nanomolar range, and, for example, in the subnanomolar range.
(§9) To measure the binding of a compound to Abl or AblKD, a test kit manufactured by Discoverx (Fremont, Calif.), ED—Staurosporine NSIP™ Enzyme Binding Assay Kit (see U.S. Pat. No. 5,643,734) was used.

In a further assay the target is T3, Abl Y393F (Mus musculus, UniProt P00520, Y393F).
T3 construct: 2 μg/mL Abl kinase domain; made in house
T3 sequence (P00520 242-493 Y393F limits assumed): T2 sequence (P00520 242-493 T315I limits assumed) with I74T, Y152F
Kind of assay: Abl Y393F kinase assay. The conditions noted are these: Table 8.
Text: as §1, §2, §3, §4, §5, §6, §7, §8, §9

Positions count from the first letter of the chain named.

Usually IC50 stands for the midpoint of a concentration-inhibition curve. For `O=C(Nc1nc2[nH]nc(-c3ccccc3)c2s1)c1cccc(Br)c1` [drawing 249], in assay [1] (Table 5), the IC50 was 1000 to 10000 nM.
Turning to `O=C(Nc1nc2[nH]nc(-c3ccncc3)c2s1)c1ccccc1`, the 50% inhibitory concentration (IC50) in assay [1] (Table 6) was less than 100 nM.
Still for that read-out and setting: the same measure for `CC(C)(C)c1n[nH]c2nc(NC(=O)c3ccccc3)sc12`: 100 to 1000 nM.
On to `O=C(Nc1nc2[nH]nc(-c3cccc(Br)c3)c2s1)c1ccccc1`, for which the IC50 (in assay [2]; at Abl Y393F) was more than 1000 nM throughout.
With `O=C(Nc1nc2[nH]nc(-c3ccc(Cl)cc3)c2s1)c1ccccc1` [drawing 246], the half-inhibitory concentration (IC50) in assay [1] (Table 5) was less than 1000 nM.
In assay [1] (Table 6), `CC(C)(C)c1n[nH]c2nc(NC(=O)c3ccncc3)sc12` displayed a concentration for half-maximal inhibition (IC50) of more than 1000 nM.
The same measure, in the same setting: then `O=C(Nc1nc2[nH]nc(-c3ccccn3)c2s1)c1ccco1`, with 100 to 1000 nM; and `O=C(Nc1nc2[nH]nc(-c3ccc(O)cc3)c2s1)C1CC1` [drawing 254], with less than 100 nM.
Same read-out and setting: then `O=C(Nc1nc2[nH]nc(-c3ccccc3)c2s1)c1ccno1`, with less than 100 nM.
For `O=C(Nc1nc2[nH]nc(-c3ccccc3)c2s1)c1cccs1`, the half-inhibitory concentration (IC50) (in assay [2]; at Abl Y393F) was 500 to 1000 nM each time.
In assay [1] (Table 6), `O=C(Nc1nc2[nH]nc(-c3ccccc3)c2s1)c1cccc(Br)c1` [drawing 259] showed an IC50 of more than 1000 nM.
Take `COc1ccc(-c2n[nH]c3nc(NC(=O)C4CC4)sc23)cc1` [drawing 271]: the results for the concentration for half-maximal inhibition (IC50) (in assay [2]; against Abl Y393F) were 500 to 1000 nM and more than 1000 nM, respectively.
As for `O=C(Nc1nc2[nH]nc(-c3ccco3)c2s1)c1ccccc1`, the IC50 in assay [1] (Table 6) was 100 to 1000 nM.
In the case of `CC(=O)Nc1nc2[nH]nc(-c3ccccc3Cl)c2s1`, the 50% inhibitory concentration (IC50) (in assay [2]; against Abl Y393F) was more than 1000 nM in each case.
Take `COCC(=O)Nc1nc2[nH]nc(-c3ccccc3)c2s1`: the IC50 (in assay [2]; at Abl Y393F) was more than 1000 nM throughout.
Consider `O=C(Nc1nc2[nH]nc(-c3ccccc3Br)c2s1)C1CC1` [drawing 267], for which the IC50 (in assay [2]; against Abl Y393F) was less than 500 nM throughout.
The compound `CC(=O)N1CCC(C(=O)Nc2nc3[nH]nc(-c4ccccc4)c3s2)CC1` [drawing 251] showed a concentration for half-maximal inhibition (IC50) in assay [1] (Table 5) of 1000 to 10000 nM.
In the case of `O=C(Nc1nc2[nH]nc(-c3ccccc3)c2s1)c1ccco1` [drawing 268], the IC50 (in assay [2]; at Abl Y393F) was less than 500 nM in each case.
`O=C(Nc1nc2[nH]nc(-c3ccccc3Cl)c2s1)C1CC1` [drawing 266]: the IC50 (in assay [2]; at Abl Y393F) was less than 500 nM each time.
In turn, `O=C(Nc1nc2[nH]nc(-c3cccc(C(F)(F)F)c3)c2s1)c1ccccc1` yielded a 50% inhibitory concentration (IC50) in assay [1] (Table 5) of 1000 to 10000 nM.
For `COCCOCC(=O)Nc1nc2[nH]nc(-c3ccccc3)c2s1` [drawing 250], the half-maximal inhibitory concentration (IC50) in assay [1] (Table 5) was 1000 to 10000 nM.
The compound `O=C(Nc1nc2[nH]nc(-c3ccccc3)c2s1)c1ccncc1` [drawing 248] had an IC50 in assay [1] (Table 5) of less than 1000 nM.

Source of the values: patent US7473783B2, “Bicyclic pyrazolo protein kinase modulators” (SGX Pharmaceuticals, Inc., priority 2003, dated 2009).
